In one assay the test system is HIV-I infected H9 cells (antiviral activity). In words: Antiviral activity against HIV-I infected H9 cells.
What is called IC50 is the concentration that inhibits the measured activity by half. Low readings indicate greater potency in that assay, high ones weaker potency in that assay. `C[C@H](NC(=O)OC(C)(C)C)C(=O)Nc1cccc(C(c2c(O)c3c(oc2=O)CCCCCC3)C2CC2)c1` (stereo partly drawn) [((S)-1-{3-[Cyclopropyl-(4-hydroxy-2-oxo-5,6,7,8,9,10-hexahydro-2H-cycloocta[b]pyran-3-yl)-methyl]-phenylcarbamoyl}-ethyl)-carbamic acid tert-butyl ester]: inhibition was half-maximal at 31.8 µM (IC50).
Same read-out and setting: the same measure for `CC(C)(C)OC(=O)N[C@@H](Cc1cnc[nH]1)C(=O)Nc1cccc(C(c2c(O)c3c(oc2=O)CCCCCC3)C2CC2)c1` (stereo partly drawn) [[(S)-1-{3-[Cyclopropyl-(4-hydroxy-2-oxo-5,6,7,8,9,10-hexahydro-2H-cycloocta[b]pyran-3-yl)-methyl]-phenylcarbamoyl}-2-(1H-imidazol-4-yl)-ethyl]-carbamic acid tert-butyl ester]: 45.3 µM; for `CC(C)(C)OC(=O)N1CCC[C@H]1C(=O)Nc1cccc(C(c2c(O)c3c(oc2=O)CCCCCC3)C2CC2)c1` (stereo partly drawn) [(S)-2-{3-[Cyclopropyl-(4-hydroxy-2-oxo-5,6,7,8,9,10-hexahydro-2H-cycloocta[b]pyran-3-yl)-methyl]-phenylcarbamoyl}-pyrrolidine-1-carboxylic acid tert-butyl ester]: 29.2 µM; for `O=C(C=Cc1ccccc1)Nc1cccc(C(c2c(O)c3c(oc2=O)CCCCCC3)C2CC2)c1` (configuration not stated) [(E)-N-{3-[Cyclopropyl-(4-hydroxy-2-oxo-5,6,7,8,9,10-hexahydro-2H-cycloocta[b]pyran-3-yl)-methyl]-phenyl}-3-phenyl-acrylamide]: 17.1 µM.
Still for that read-out and setting: with `CC(C)(C)OC(=O)NCCC(=O)Nc1cccc(C(c2c(O)c3c(oc2=O)CCCCCC3)C2CC2)c1` (configuration not stated) [(2-{3-[Cyclopropyl-(4-hydroxy-2-oxo-5,6,7,8,9,10-hexahydro-2H-cycloocta[b]pyran-3-yl)-methyl]-phenylcarbamoyl}-ethyl)-carbamic acid tert-butyl ester] the figure was 33.4 µM; with `CCNC(=O)Nc1cccc(C(c2c(O)c3c(oc2=O)CCCCCC3)C2CC2)c1` (configuration not stated) [1-{3-[Cyclopropyl-(4-hydroxy-2-oxo-5,6,7,8,9,10-hexahydro-2H-cycloocta[b]pyran-3-yl)-methyl]-phenyl}-3-ethyl-urea], above 60 µM.
The same measure, in the same setting: the same measure for `O=C(Cc1ccccc1)Nc1cccc(C(c2c(O)c3c(oc2=O)CCCCCC3)C2CC2)c1` (configuration not stated) [N-{3-[Cyclopropyl-(4-hydroxy-2-oxo-5,6,7,8,9,10-hexahydro-2H-cycloocta[b]pyran-3-yl)-methyl]-phenyl}-2-phenyl-acetamide]: 17.3 µM; for `O=C(Nc1ccccc1)Nc1cccc(C(c2c(O)c3c(oc2=O)CCCCCC3)C2CC2)c1` (configuration not stated) [1-{3-[Cyclopropyl-(4-hydroxy-2-oxo-5,6,7,8,9,10-hexahydro-2H-cycloocta[b]pyran-3-yl)-methyl]-phenyl}-3-phenyl-urea]: 21.7 µM.
`O=C(Nc1cccc(C(c2c(O)c3c(oc2=O)CCCCCC3)C2CC2)c1)c1ccccc1` (configuration not stated) [N-{3-[Cyclopropyl-(4-hydroxy-2-oxo-5,6,7,8,9,10-hexahydro-2H-cycloocta[b]pyran-3-yl)-methyl]-phenyl}-benzamide] yielded an IC50 of 23.5 µM.
`C[C@@H](NC(=O)OC(C)(C)C)C(=O)Nc1cccc(C(c2c(O)c3c(oc2=O)CCCCCC3)C2CC2)c1` (stereo partly drawn) [((R)-1-{3-[Cyclopropyl-(4-hydroxy-2-oxo-5,6,7,8,9,10-hexahydro-2H-cycloocta[b]pyran-3-yl)-methyl]-phenylcarbamoyl}-ethyl)-carbamic acid tert-butyl ester] yielded a 50% inhibitory concentration (IC50) above 60 µM.
In the case of `CCCC(=O)Nc1cccc(C(c2c(O)c3c(oc2=O)CCCCCC3)C2CC2)c1` (configuration not stated) [N-{3-[Cyclopropyl-(4-hydroxy-2-oxo-5,6,7,8,9,10-hexahydro-2H-cycloocta[b]pyran-3-yl)-methyl]-phenyl}-butyramide], the IC50 was 35.1 µM.
Same read-out and setting: with `CC(C)(C)OC(=O)NCC(=O)Nc1cccc(C(c2c(O)c3c(oc2=O)CCCCCC3)C2CC2)c1` (configuration not stated) [({3-[Cyclopropyl-(4-hydroxy-2-oxo-5,6,7,8,9,10-hexahydro-2H-cycloocta[b]pyran-3-yl)-methyl]-phenylcarbamoyl}-methyl)-carbamic acid tert-butyl ester] the figure was 29.8 µM; with `CCCC1CCCCCCc2c1oc(=O)c(C(c1ccccc1)C1CC1)c2O` (configuration not stated) [3-(Cyclopropyl-phenyl-methyl)-4-hydroxy-11-propyl-6,7,8,9,10,11-hexahydro-5H-cyclonona[b]pyran-2-one], 5.3 µM; with `CC(C)(C)OC(=O)NCCCC(=O)Nc1cccc(C(c2c(O)c3c(oc2=O)CCCCCC3)C2CC2)c1` (configuration not stated) [(3-{3-[Cyclopropyl-(4-hydroxy-2-oxo-5,6,7,8,9,10-hexahydro-2H-cycloocta[b]pyran-3-yl)-methyl]-phenylcarbamoyl}-propyl)-carbamic acid tert-butyl ester], 49.5 µM.
In turn, `O=C(Nc1cccc(C(c2c(O)c3c(oc2=O)CCCCCC3)C2CC2)c1)c1ccc(F)cc1` (configuration not stated) [N-{3-[Cyclopropyl-(4-hydroxy-2-oxo-5,6,7,8,9,10-hexahydro-2H-cycloocta[b]pyran-3-yl)-methyl]-phenyl}-4-fluoro-benzamide] showed a concentration for half-maximal inhibition (IC50) of 21.9 µM.

The next assay deals with Human immunodeficiency virus type 1 protease (Human immunodeficiency virus 1, UniProt Q72874). As to the kind of experiment: Inhibitory activity against HIV-I protease.
A word on the Ki: it is the equilibrium dissociation constant of an inhibitor or competing ligand from its target. A high value points to weaker binding. The compound `O=c1oc2c(c(O)c1C(c1ccccc1)C1CC1)CCCCCCC2CC1CC1` (configuration not stated) [11-Cyclopropylmethyl-3-(cyclopropyl-phenyl-methyl)-4-hydroxy-6,7,8,9,10,11-hexahydro-5H-cyclonona[b]pyran-2-one] gave an inhibitory constant (Ki) of 0.024 µM.
Still for that read-out and setting: the same measure for `O=c1oc2c(c(O)c1C(c1ccccc1)C1CC1)CCCCCC2CC1CC1` (configuration not stated) [10-Cyclopropylmethyl-3-(cyclopropyl-phenyl-methyl)-4-hydroxy-5,6,7,8,9,10-hexahydro-cycloocta[b]pyran-2-one]: 0.024 µM.

Values taken from BindingDB's records for doi:10.1021/jm00022a011 (Upjohn Laboratories, 1995).
